Broadly, the IC50 is the concentration that inhibits the measured activity by half.

Here are results for three molecules from patent US7473711B2, “Androgen modulators” (Pfizer Inc., priority 2004, dated 2009).

The target of this experiment is T1, androgen receptor in MDA-MB453-MMTV clone 54-19 cells (Homo sapiens, UniProt P10275).
T1 sequence (P10275 1-920 Q868H): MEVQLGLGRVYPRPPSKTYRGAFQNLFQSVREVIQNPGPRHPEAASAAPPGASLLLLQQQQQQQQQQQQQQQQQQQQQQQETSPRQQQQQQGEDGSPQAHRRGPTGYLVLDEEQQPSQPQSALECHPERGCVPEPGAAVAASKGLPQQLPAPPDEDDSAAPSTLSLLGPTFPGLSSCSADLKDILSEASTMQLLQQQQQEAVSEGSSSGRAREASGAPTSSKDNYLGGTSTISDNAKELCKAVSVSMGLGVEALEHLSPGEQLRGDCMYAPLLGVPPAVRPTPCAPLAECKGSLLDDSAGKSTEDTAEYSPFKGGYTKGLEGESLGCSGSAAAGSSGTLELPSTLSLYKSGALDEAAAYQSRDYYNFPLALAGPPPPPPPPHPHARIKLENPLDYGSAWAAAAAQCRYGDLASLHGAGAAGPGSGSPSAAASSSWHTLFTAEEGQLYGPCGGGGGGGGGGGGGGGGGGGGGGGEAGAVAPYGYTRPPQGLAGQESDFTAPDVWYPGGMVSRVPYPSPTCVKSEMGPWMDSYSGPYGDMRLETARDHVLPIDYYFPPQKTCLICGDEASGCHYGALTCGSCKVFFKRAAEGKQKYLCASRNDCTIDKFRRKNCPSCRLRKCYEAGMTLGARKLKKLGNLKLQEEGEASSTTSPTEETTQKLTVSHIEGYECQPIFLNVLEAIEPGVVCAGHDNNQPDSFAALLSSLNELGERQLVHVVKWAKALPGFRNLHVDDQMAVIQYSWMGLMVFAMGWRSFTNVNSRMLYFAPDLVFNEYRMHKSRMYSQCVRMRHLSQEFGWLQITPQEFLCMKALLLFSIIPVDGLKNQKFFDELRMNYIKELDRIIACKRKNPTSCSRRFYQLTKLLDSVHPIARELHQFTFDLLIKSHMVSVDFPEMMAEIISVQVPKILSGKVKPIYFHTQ
The experiment can be described thus: AR antagonist cell assay (MMTV-luciferase reporter, 100 pM DHT). Format: cell-based. Conditions: read-out: AR Cell IC50; MDA-MB453-MMTV clone 54-19, inhibition of 100 pM DHT induced luciferase, 17 hr; mean of multiple tests. On the procedure:
The compounds ability to antagonize the effects of androgen on the androgen receptor were determined in a whole cell assay as described immediately below.
Experimental Procedure for AR Antagonist Cell Assay
Cell line: MDA-MB453-MMTV clone 54-19. This cell line is a stable transfected cell line with MDA-MB453 cell background (a human breast tumor cell line expressing androgen receptor). A MMTV minimal promoter containing ARE was first cloned in front of a firefly luciferase reporter gene. Then the cascade was cloned into transfection vector pUV120puro. Electroporation method was used for transfecting MDA-MB-453 cell. Puromycin resistant stable cell line was selected. Cell Culture Media and Reagents:
Culture medium: DMEM (high glucose, Gibco cat #: 11960-044), 10% FBS, and 1% L-glutamine
Plating medium: DMEM (phenol red free), 10% charcoal treated HyClone serum, 1% L-glutamine
Assay medium: DMEM (phenol red free), 1% charcoal treated HyClone serum, 1% L-glutamine, and 1% penicillin/streptomycin
3X luciferase buffer: 2% beta-mercaptoethanol, 0.6% ATP, 0.0135% luciferine in cell lysis buffer
• 1. Cells are maintained in culture medium, splitting cells when they reach 80-90% confluence • 2. To test compounds, 10,000 cells/well are plated to opaque 96 cell culture plate in 100 ul/well plating medium, culture for overnight at 37° C. in cell culture incubator • 3. Carefully remove plating medium, then add 80 ul/well of pre-warmed assay medium, add 10 ul/well testing compound (final concentration at) 1000 nM, 200 nM, 40 nM, 8 nM, 1.6 nM, and 0.32 nM), incubate at 37° C. for 30 minutes • 4. Add 10 ul/well freshly prepared DHT (final concentration at 100 pM) to each well, incubate at 37° C. for 17 hr (overnight) • 5. Add 50 ul/well 3X luciferase buffer, incubate at room temperature for 5 minutes, then count on Luminometer
The fold induction over background by 100 pM DHT in the absence of testing compounds is standardized as 100% and experimental result is expressed as percentage of inhibition by testing compounds.
The results are reported as the mean of multiple tests as described below (the numbers of tests are indicated in the footnote). N.D. denotes that the compound was not tested.
In general terms: Reporter assays use an easily measured gene product as a stand-in for the process of interest.
Take `COCC(COc1ccccc1)Oc1ccc(C#N)c(C(F)(F)F)c1` (stereo not drawn) [Example 27, 4-(1-Methoxymethyl-2-phenoxy-ethoxy)-2-trifluoromethyl-benzonitrile]: the IC50 was 19 nM.

As to `N#Cc1ccc(OC(CO)COc2ccccc2)cc1C(F)(F)F` (stereo not drawn) [Example 28, 4-(1-Hydroxymethyl-2-phenoxy-ethoxy)-2-trifluoromethyl-benzonitrile], the half-inhibitory concentration (IC50) stood at 69 nM.

`N#Cc1ccc(OCCCCCOc2ccc(C#N)c(C(F)(F)F)c2)cc1C(F)(F)F` [Example 24]: the IC50 was 64 nM.
